Bounds are passed on as bounds.

One experiment deals with GSPT1 (Homo sapiens, UniProt P15170+Q96SW2). As to the kind of experiment: HiBiT degradation assay, GSPT1, Procedure A. Details: HiBit-GSPT1 KI HEK293(LgBit) Cells; host or cells: HEK293(LgBit) knock-in cells. Type of experiment: cell-based. The procedure, abridged: (§1)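 Luminescence from HiBiT lytic detection, read after 20 min shaking, gave DC50 and Ymin by 4-parameter fit. Before that, cells (1×10^6 cells/ml, DMEM+10% FBS) sat 6 h at 37° C on 10-point compound series (10 μM–0.005 μM, 0.1% DMSO).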
GSPT1, sequence (P15170 whole entry): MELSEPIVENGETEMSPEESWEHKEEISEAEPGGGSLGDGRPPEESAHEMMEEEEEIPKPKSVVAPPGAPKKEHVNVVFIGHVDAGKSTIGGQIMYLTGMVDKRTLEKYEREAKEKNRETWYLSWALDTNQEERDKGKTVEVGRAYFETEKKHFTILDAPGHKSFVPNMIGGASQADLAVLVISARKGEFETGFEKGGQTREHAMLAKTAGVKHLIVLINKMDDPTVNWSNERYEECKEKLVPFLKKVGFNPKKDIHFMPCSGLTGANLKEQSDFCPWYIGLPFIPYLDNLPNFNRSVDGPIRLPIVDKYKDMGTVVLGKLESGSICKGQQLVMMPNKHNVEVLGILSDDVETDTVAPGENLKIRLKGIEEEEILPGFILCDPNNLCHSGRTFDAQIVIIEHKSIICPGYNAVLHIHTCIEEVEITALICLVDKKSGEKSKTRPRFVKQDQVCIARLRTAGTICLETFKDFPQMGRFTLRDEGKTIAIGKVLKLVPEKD
GSPT1, sequence (Q96SW2 whole entry): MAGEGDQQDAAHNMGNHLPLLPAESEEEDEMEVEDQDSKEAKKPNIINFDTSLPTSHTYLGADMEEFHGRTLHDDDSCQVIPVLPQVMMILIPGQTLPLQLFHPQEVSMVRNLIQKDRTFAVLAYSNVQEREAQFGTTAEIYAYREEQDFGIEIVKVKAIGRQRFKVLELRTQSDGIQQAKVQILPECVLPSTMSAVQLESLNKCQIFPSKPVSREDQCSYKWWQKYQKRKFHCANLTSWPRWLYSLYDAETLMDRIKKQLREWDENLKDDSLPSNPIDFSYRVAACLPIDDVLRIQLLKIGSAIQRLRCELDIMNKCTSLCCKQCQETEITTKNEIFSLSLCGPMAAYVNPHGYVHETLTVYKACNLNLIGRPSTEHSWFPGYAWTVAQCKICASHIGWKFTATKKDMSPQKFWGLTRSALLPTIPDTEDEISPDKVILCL
GSPT1, sequence (Q16531 whole entry partner): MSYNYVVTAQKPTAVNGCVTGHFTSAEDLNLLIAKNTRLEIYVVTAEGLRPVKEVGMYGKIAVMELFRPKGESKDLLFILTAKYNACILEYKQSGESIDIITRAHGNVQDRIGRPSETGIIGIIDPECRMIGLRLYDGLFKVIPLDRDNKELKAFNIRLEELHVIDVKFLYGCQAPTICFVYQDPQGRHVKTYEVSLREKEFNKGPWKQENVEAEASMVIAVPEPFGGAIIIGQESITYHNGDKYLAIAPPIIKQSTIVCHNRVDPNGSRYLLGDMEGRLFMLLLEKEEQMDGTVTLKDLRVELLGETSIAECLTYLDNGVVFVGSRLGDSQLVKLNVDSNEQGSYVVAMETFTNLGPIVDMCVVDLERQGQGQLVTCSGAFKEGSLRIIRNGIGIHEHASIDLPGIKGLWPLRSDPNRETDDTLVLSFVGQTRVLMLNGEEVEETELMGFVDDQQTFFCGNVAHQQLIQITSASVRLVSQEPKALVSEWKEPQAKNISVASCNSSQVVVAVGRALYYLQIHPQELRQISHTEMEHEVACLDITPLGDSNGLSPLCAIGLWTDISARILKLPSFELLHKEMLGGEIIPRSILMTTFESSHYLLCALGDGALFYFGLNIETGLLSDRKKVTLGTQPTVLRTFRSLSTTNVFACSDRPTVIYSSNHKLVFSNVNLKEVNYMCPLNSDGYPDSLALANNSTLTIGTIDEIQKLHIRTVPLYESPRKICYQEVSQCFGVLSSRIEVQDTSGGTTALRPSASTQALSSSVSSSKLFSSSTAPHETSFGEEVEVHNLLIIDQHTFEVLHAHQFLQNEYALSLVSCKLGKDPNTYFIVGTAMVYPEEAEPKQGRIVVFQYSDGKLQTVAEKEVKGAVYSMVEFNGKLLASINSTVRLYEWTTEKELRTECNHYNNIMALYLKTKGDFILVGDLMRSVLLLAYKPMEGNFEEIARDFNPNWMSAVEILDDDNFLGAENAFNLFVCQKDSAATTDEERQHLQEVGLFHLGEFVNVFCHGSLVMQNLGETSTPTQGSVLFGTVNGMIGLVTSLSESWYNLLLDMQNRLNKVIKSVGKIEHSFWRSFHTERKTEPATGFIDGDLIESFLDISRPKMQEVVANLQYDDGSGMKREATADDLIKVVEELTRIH

The target of another experiment is T1, CK1α (Homo sapiens, UniProt P48729+Q96SW2).
T1 construct: CSNK1A1-HiBit KI HEK293(LgBit) Cells; host or cells: HEK293(LgBit) knock-in cells
T1 sequence (P48729 whole entry): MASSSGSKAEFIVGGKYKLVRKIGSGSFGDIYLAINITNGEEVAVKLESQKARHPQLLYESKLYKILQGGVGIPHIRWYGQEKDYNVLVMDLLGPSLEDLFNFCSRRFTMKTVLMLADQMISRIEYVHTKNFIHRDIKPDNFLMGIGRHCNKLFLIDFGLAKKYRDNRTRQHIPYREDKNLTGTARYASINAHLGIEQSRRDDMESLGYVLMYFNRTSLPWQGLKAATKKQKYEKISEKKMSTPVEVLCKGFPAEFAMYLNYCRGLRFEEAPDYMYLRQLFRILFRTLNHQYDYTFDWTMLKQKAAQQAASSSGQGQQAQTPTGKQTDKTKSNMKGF
T1 sequence (Q96SW2 whole entry): as the sequence (Q96SW2 whole entry) above
T1 sequence (Q16531 whole entry partner): as the sequence (Q16531 whole entry partner) above
Description: HiBiT degradation assay, CK1α, Procedure A. It is filed as cell-based. In short, it runs like this: as §1

As for `Cn1ncc(-c2ccc3c(c2)CN(C2CCC(=O)NC2=O)C3=O)c1-c1cccc(-n2cccn2)c1` (stereo not shown) [Example 479], on GSPT1 (six hours), the DC50 was no less than 25 nM and the “GSPT1 Ymin” value is given as “F (F = >75-100% remaining)”. Also, on CK1α (six hours), the “CK1α Ymin” value is “E (E = >25-75% remaining)” and the DC50 is less than 25 nM.

For the compound `Cn1cc(-c2ccc3c(c2)CN(C2CCC(=O)NC2=O)C3=O)nc1-c1ccn2ccnc2c1` (stereo not shown) [Example 585], at GSPT1 (six hours), the DC50 was less than 25 nM and the “GSPT1 Ymin” value is reported as “F (F = >75-100% remaining)”. At CK1α (six hours), the “CK1α Ymin” value is reported as “D (D = >10- 25% remaining)” and the DC50 was no less than 25 nM.

Regarding `COc1ccc(C)cc1-c1c(-c2ccc3c(c2)CN(C2CCC(=O)NC2=O)C3=O)ncn1C` (stereo not shown) [Example 249], at GSPT1 (six hours incubation), the DC50 is no less than 25 nM and the “GSPT1 Ymin” value is given as “F (F = >75-100% remaining)”. Moreover, at CK1α (six hours incubation), the “CK1α Ymin” value is “D (D = >10- 25% remaining)” and the DC50 is less than 25 nM.

Consider `Cn1ncc(-c2ccc3c(c2)CN(C2CCC(=O)NC2=O)C3=O)c1-c1ccc(OCCCN2CCOCC2)cc1` (stereo not shown) [Example 220], for which, on GSPT1 (six hours incubation), the DC50 is no less than 25 nM and the “GSPT1 Ymin” value was “F (F = >75-100% remaining)”. Besides, on CK1α (six hours incubation), the “CK1α Ymin” value is listed as “E (E = >25-75% remaining)” and the DC50 was less than 25 nM.

Take `Cn1ncc(-c2ccc3c(c2)CN(C2CCC(=O)NC2=O)C3=O)c1-c1ccc2ncn(C)c2c1` (stereo not shown) [Example 463]: on GSPT1 (six hours), the DC50 is no less than 25 nM and the “GSPT1 Ymin” value was “F (F = >75-100% remaining)”. Further, on CK1α (six hours), the “CK1α Ymin” value is “D (D = >10- 25% remaining)” and the DC50 is no less than 25 nM.

For the compound `COCc1ccc(-c2c(-c3ccc4c(c3)CN(C3CCC(=O)NC3=O)C4=O)ncn2C)cc1` (stereo not shown) [Example 250], on GSPT1 (six hours incubation), the DC50 was less than 25 nM and the “GSPT1 Ymin” value is on record as “E (E = >25-75% remaining)”. In addition, at CK1α (six hours incubation), the “CK1α Ymin” value is on record as “C (C = 0-10% remaining)” and the DC50 is less than 25 nM.

As for `Cc1cc(-c2c(-c3ccc4c(c3)CN(C3CCC(=O)NC3=O)C4=O)cnn2C)n(C)n1` (stereo not shown) [Example 454], on GSPT1 (six hours), the DC50 was no less than 25 nM and the “GSPT1 Ymin” value is listed as “F (F = >75-100% remaining)”. Further, on CK1α (six hours), the “CK1α Ymin” value is given as “F (F = >75-100% remaining)” and the DC50 was no less than 25 nM.

Turning to `Cn1cnc(-c2ccc3c(c2)CN(C2CCC(=O)NC2=O)C3=O)c1-c1cc(C#N)ccc1F` (stereo not shown) [Example 186], at GSPT1 (six hours incubation), the DC50 is no less than 25 nM and the “GSPT1 Ymin” value was “F (F = >75-100% remaining)”. On CK1α (six hours incubation), the “CK1α Ymin” value is reported as “E (E = >25-75% remaining)” and the DC50 was no less than 25 nM.

For `Cn1ncc(-c2ccc3c(c2)CN(C2CCC(=O)NC2=O)C3=O)c1C1CC1` (stereo not shown) [Example 116], at GSPT1 (six hours incubation), the DC50 is no less than 25 nM and the “GSPT1 Ymin” value is recorded as “F (F = >75-100% remaining)”. At CK1α (six hours incubation), the “CK1α Ymin” value is given as “E (E = >25-75% remaining)” and the DC50 was no less than 25 nM.

For `Cn1cnc(-c2ccc3c(c2)CN(C2CCC(=O)NC2=O)C3=O)c1-c1ccc2c(c1)CCCO2` (stereo not shown) [Example 514], at GSPT1 (six hours), the DC50 was no less than 25 nM and the “GSPT1 Ymin” value was “E (E = >25-75% remaining)”. Also, on CK1α (six hours), the “CK1α Ymin” value is listed as “C (C = 0-10% remaining)” and the DC50 is less than 25 nM.

With `Cn1ncc(-c2ccc3c(c2)CN(C2CCC(=O)NC2=O)C3=O)c1-c1cccc(CCCCCCc2ccccc2)c1` (stereo not shown) [Example 409], at GSPT1 (six hours), the DC50 was no less than 25 nM and the “GSPT1 Ymin” value is “F (F = >75-100% remaining)”. Moreover, on CK1α (six hours), the “CK1α Ymin” value is reported as “E (E = >25-75% remaining)” and the DC50 was no less than 25 nM.

Turning to `Cn1cc(-c2ccc3c(c2)CN(C2CCC(=O)NC2=O)C3=O)nc1-c1ccc(C2CCCCC2)cc1` (stereo not shown) [Example 582], at GSPT1 (six hours), the DC50 was less than 25 nM and the “GSPT1 Ymin” value is “F (F = >75-100% remaining)”. In addition, at CK1α (six hours), the “CK1α Ymin” value was “C (C = 0-10% remaining)” and the DC50 is less than 25 nM.

For `Cn1ncc(-c2ccc3c(c2)CN(C2CCC(=O)NC2=O)C3=O)c1-c1cc(Cl)ccc1F` (stereo not shown) [Example 93], at GSPT1 (six hours incubation), the DC50 is no less than 25 nM and the “GSPT1 Ymin” value is “F (F = >75-100% remaining)”. For the same compound, on CK1α (six hours incubation), the “CK1α Ymin” value is “E (E = >25-75% remaining)” and the DC50 was no less than 25 nM.

The values are drawn from patent US20240158370A1, “CK1 alpha AND DUAL CK1 alpha / GSPT1 DEGRADING COMPOUNDS” (Innovo Therapeutics, Inc., priority 2022, published 2024).
